The results in this text go back to PMC6900016, “Synthesis of Indomorphan Pseudo‐Natural Product Inhibitors of Glucose Transporters GLUT‐1 and ‐3” (Angewandte Chemie (International Ed. in English), 2019).

The structures appear in SMILES notation.

Common to all, as to test: cells
Design in all cases: Cell growth inhibition, sulforhodamine B total protein staining

In one assay the test system is A204. As to conditions: Homo sapiens, A204; 72 h growth; read-out: Cell growth inhibition IC50/µM. The protocol: (§1) Cell panel profiling A panel of 94 cell lines was exposed to Glupin for 72 h to assess the influence on cell growth (Oncolead, Germany). Cell growth was determined using sulforhodamine B assay. Measurements were performed using a total protein staining protocol. Briefly, after treatement cells were fixed addition of 10% TCA (for adherent growing cells) or 50% TCA (for semi-adherent growing cells or cells growing in suspension). After an incubation at 4°C for 1 h, plates were washed twice with 400 μl of deionized water and dried. Cells were then stained with 100 μl of 0.04% wt/v sulforhodamine B. Plates were incubated at room temperature for at least 30 min and washed six times with 1% acetic acid to remove unbound stain. […] This effect was much stronger at a physiological glucose concentration (5 mM; Figure 5 b,c). […] IC50 values lower than 300 nM were obtained for more than 20 cell lines, whereas 24 cell lines were not affected by the compound, among them the peripheral blood mononuclear control cells (PBMCs). Sensitivity to Glupin was detected across various tissue types (Table S6).

The subject of another assay is A431. As to conditions: Homo sapiens, A-431; 72 h growth; read-out: Cell growth inhibition IC50/µM. As for the experimental part: as §1
The next assay has as its system A549. As to conditions: Homo sapiens, A549; 72 h growth; read-out: Cell growth inhibition IC50/µM. As for the experimental part:
as §1

In the next assay the test system is ACHN. As to conditions: Homo sapiens, ACHN; 72 h growth; read-out: Cell growth inhibition IC50/µM. As for the experimental part:
as §1

In a further assay the test system is ASPC1. To be noted: Homo sapiens, ASPC1; 72 h growth; read-out: Cell growth inhibition IC50/µM. The protocol:
as §1

The next assay has as its system CLS439. As to conditions: 72 h growth; read-out: Cell growth inhibition IC50/µM. The protocol: as §1
The next assay relates to COLO205. As to conditions: Homo sapiens, COLO 205; 72 h growth; read-out: Cell growth inhibition IC50/µM. As for the experimental part:
as §1

In a further assay the test system is COLO678. To be noted: Homo sapiens, COLO-678; 72 h growth; read-out: Cell growth inhibition IC50/µM. The protocol:
as §1

The subject of another assay is DU145. As to conditions: Homo sapiens, DU-145; 72 h growth; read-out: Cell growth inhibition IC50/µM. As for the experimental part: as §1
The next assay concerns HEPG2. As to conditions: Homo sapiens, HepG2; 72 h growth; read-out: Cell growth inhibition IC50/µM. The protocol: as §1
For another assay, the system named is IGROV1. As to conditions: Homo sapiens, IGROV-1; 72 h growth; read-out: Cell growth inhibition IC50/µM. As for the experimental part: as §1
A further assay concerns IMR90. As to conditions: Homo sapiens, IMR-90; 72 h growth; read-out: Cell growth inhibition IC50/µM. As for the experimental part: as §1
A further assay has as its system MCF7. As to conditions: Homo sapiens, MCF7; 72 h growth; read-out: Cell growth inhibition IC50/µM. The protocol: as §1
The test system of a further assay is MIAPACA2. As to conditions: Homo sapiens, MIA PaCa-2; 72 h growth; read-out: Cell growth inhibition IC50/µM. As for the experimental part: as §1
A further assay deals with NCIH460. As to conditions: Homo sapiens, NCI-H460; 72 h growth; read-out: Cell growth inhibition IC50/µM. As for the experimental part:
as §1

The test system of a further assay is OVCAR3. To be noted: Homo sapiens, OVCAR-3; 72 h growth; read-out: Cell growth inhibition IC50/µM. The protocol: as §1
A further assay deals with PLCPRF5. As to conditions: Homo sapiens, PLC-PRF-5; 72 h growth; read-out: Cell growth inhibition IC50/µM. The protocol: as §1
A further assay relates to RAMOS. To be noted: Homo sapiens, Ramos; 72 h growth; read-out: Cell growth inhibition IC50/µM. As for the experimental part: as §1
The test system of the next assay is RD. To be noted: Homo sapiens, RD; 72 h growth; read-out: Cell growth inhibition IC50/µM. As for the experimental part: as §1
For another assay, the system named is SKNAS. As to conditions: Homo sapiens, SK-N-AS; 72 h growth; read-out: Cell growth inhibition IC50/µM. The protocol: as §1
Another assay relates to SUDHL10. As to conditions: Homo sapiens, SU-DHL10; 72 h growth; read-out: Cell growth inhibition IC50/µM. The protocol: as §1
In a further assay the test system is SUDHL6. To be noted: Homo sapiens, SU-DHL-6; 72 h growth; read-out: Cell growth inhibition IC50/µM. As for the experimental part: as §1
In a further assay the test system is U87MG. As to conditions: Homo sapiens, U-87 MG; 72 h growth; read-out: Cell growth inhibition IC50/µM. The protocol:
as §1

Take `CCOC(=O)Cn1c2c(c3ccccc31)C[C@@H]1C[C@H]2C(OC)CN1C(=O)c1cccnc1SC` (single isomer, unassigned; (+)) [(+)-5a, Glupin]: the IC50 is 0.562 µM in the assay with A204; 0.23 µM with A431; 0.32 µM with A549; more than 30 µM with ACHN; 0.695 µM with ASPC1; 0.24 µM in the assay with CLS439. In addition, the IC50 with COLO205 is 3.73 µM; in the assay on COLO678 it was more than 30 µM; in the assay with DU145, 0.317 µM; in the assay with HEPG2 it was more than 30 µM; with IGROV1 it was 1.76 µM; in the assay on IMR90, more than 30 µM. The IC50 in the assay on MCF7 was more than 30 µM; with MIAPACA2, 0.061 µM; with NCIH460, 0.572 µM; in the assay on OVCAR3, more than 30 µM; in the assay on PLCPRF5, more than 30 µM; with RAMOS it was 0.212 µM. Besides, the IC50 was 0.842 µM in the assay on RD; 0.175 µM in the assay with SKNAS; 0.219 µM in the assay with SUDHL10; 0.092 µM with SUDHL6; more than 30 µM with U87MG.
